Assay results reported in PMC11951083, “Highly Specific Miniaturized Fluorescent Monoacylglycerol Lipase Probes Enable Translational Research” (Journal of the American Chemical Society, 2025).
Values after ≈ are worked out from the molar mass of the structure shown. Read-outs that look alike come from different tables or passages of the source.

Columns and labels:
mMAGL = target: T1, mMAGL (Mus musculus, UniProt O35678); experiment: Native MS (RapidFire) 2-AG substrate assay, purified mouse MAGL; type: biochemical; details: purified mouse MAGL, native MS substrate assay; read-out: IC50 mMAGL
T1 sequence (O35678 1-303): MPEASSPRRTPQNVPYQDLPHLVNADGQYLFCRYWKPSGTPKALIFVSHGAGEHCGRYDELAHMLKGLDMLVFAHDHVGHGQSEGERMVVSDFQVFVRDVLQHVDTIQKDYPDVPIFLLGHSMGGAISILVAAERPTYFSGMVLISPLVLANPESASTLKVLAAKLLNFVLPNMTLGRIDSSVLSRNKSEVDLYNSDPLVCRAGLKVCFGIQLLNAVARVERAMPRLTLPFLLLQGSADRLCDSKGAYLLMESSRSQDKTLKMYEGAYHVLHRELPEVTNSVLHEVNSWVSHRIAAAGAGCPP
Experimental: (§1) In vitro MAGL Inhibition Assay
(§2) Compounds were profiled for MAGL inhibitory activity by determining the enzymatic activity by following the hydrolysis of the natural substrate 2-arachidonoylglycerol (2-AG), resulting in arachidonic acid, which can be followed by mass spectrometry. The 2-AG assay was carried out in 384 well assay plates (PP, Greiner Cat# 784201) in a total volume of 20 µL. Compound dilutions were made in 100% DMSO (VWR Chemicals 23500.297) in a polypropylene plate in 3-fold dilution steps to give a final concentration range in the assay from 12.5 µM to 0.8 pM. 0.25µL compound dilutions (100% DMSO) were added to 9 µL MAGL in assay buffer (50 mM TRIS (GIBCO, 15567-027), 1 mM EDTA (Fluka, 03690-100 mL), 0.01% (v/v) Tween. After shaking, the plate was incubated for 15 min at RT. To start the reaction, 10 µL 2-arachidonoylglycerol in assay buffer was added. The final concentrations in the assay were 50 pM MAGL and 8 µM 2-arachidonoylglyerol. After shaking and 30 min incubation at RT, the reaction was quenched by the addition of 40µL of ACN containing 4µM of d8-arachidonic acid. The amount of arachidonic acid was traced by an online SPE system (Agilent Rapidfire) coupled to a triple quadrupole mass spectrometer (Agilent 6460). A C18 SPE cartridge (G9205A) was used in an ACN/water liquid setup. The mass spectrometer was operated in negative electrospray mode following the mass transitions 303.1 → 259.1 for arachidonic acid and 311.1 → 267.0 for d8-arachidonic acid. The activity of the compounds was calculated based on the ratio of intensities [arachidonic acid / d8-arachidonic acid]. The lowest IC50 value that can be determined with high accuracy is approximately 0.025 nM.

[1] = High throughput kinetic solubility measurement; type: physicochemical; details: phosphate buffer, pH 6.5, aqueous buffer, kinetic from dmso stock
rMAGL = target: T2, rMAGL (Rattus norvegicus, UniProt Q8R431); experiment: Native MS (RapidFire) 2-AG substrate assay, purified rat MAGL; type: biochemical; details: for loss of potency against rat or cynomolgus monkey orthologs: rat or cynomolgus monkey MAGL
T2 sequence (Q8R431 1-303): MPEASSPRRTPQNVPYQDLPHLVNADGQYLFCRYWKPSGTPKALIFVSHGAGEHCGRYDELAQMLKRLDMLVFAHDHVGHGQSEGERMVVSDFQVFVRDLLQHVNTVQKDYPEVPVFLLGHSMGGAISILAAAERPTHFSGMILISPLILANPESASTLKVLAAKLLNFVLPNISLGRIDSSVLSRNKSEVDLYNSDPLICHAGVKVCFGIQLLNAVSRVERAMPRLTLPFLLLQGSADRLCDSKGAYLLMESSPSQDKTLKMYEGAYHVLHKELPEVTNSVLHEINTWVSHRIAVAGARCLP
Experimental: as §1, §2

cMAGL = target: T3, cMAGL (Macaca fascicularis, UniProt A0A2K5V664); experiment: Native MS (RapidFire) 2-AG substrate assay, purified cynomolgus monkey MAGL; type: biochemical; details: purified cynomolgus monkey MAGL, native MS substrate assay; read-out: IC50 cMAGL
T3 sequence (A0A2K5V664 11-297): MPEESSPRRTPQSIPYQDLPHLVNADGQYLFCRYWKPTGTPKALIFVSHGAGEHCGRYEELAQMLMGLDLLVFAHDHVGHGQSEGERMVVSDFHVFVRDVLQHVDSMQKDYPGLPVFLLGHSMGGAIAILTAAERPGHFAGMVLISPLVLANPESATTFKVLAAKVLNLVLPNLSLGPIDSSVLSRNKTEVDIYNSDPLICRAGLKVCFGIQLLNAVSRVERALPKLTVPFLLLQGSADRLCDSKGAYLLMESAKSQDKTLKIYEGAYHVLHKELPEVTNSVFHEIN
Experimental: as §1, §2

[2] = tested on: serine hydrolases in the mouse brain proteome (MBP); experiment: Multiplex ABPP in mouse brain proteome; type: biochemical
Experimental: K = [L][P] = 0.5 [L]T (FP50 − 0.5 [L]T) = FP − 0.5 [L] […]
Mouse brain sample preparation
Mouse tissues were isolated according to guidelines approved by the ethical committee of Leiden University. Male mouse brain (27 weeks old) was homogenized with glass beads (2x 1 min, bullet blender, speed 8) using cold lysis buffer (20 mM Hepes pH 7.2, 1 mM MgCl 2, 2 U/mL Benzonase). The membrane and cytosol were separated by centrifugation. The membrane fraction was resuspended in Hepes/DTT buffer. Protein concentration was determined with Bradford Assay, and samples were diluted to a final concentration of 2.0 mg/mL. Samples were snap -frozen in liquid nitrogen and stored at -80 °C until further use.
Lysate (19 µL, 2 µg/µL) was thawed on ice. For comparative ABPP (irreversible probes), 1 µL of probe (20x stock in DMSO) or pure DMSO was added to the sample, vortexed briefly, and in cubated for 30 minutes at RT. For competitive ABPP (reversible probes), 0.5 µL of the reversible probe (40x stock in DMSO) or pure DMSO (as vehicle) was added to the sample, vortexed briefly, and incubated for 30 […]
minutes at RT. Subsequently, 0.5 µL MB064 (40x stock in DMSO) was added to the proteome sample, vortexed briefly, and incubated for 10 minutes at RT, after which 0.5 µL FP-Bodipy-FL (40x stock in DMSO) was added, vortexed briefly and incubated for 10 minutes at RT. The final volume was 20 - 20.5 µL (5 - 7.5% DMSO). The reaction was quenched by the addition of 7.5 µL of 4*Laemmli-buffer (final concentrations: 60 mM Tris (pH 6.8), 2% (w/v) SDS, 10% (v/v) glycerol, 1.25% (v/v) β-mercaptoethanol, 0.01% (v/v) bromophenol blue). 10 µL (14 µg protein) of the quenched reaction mixture was resolved on 10% acrylamide SDS-PAGE (180 V, 75 min). Fluorescence was measured using a Biorad ChemiDoc MP system (fluorescence channels Cy2, Cy3, Cy5). Gels were then stained using coomassie staining and imaged for protein loading control. Labeling of the respective proteins via MB064 and FP-BODIPY was visualized in two separate channels. […]
Activity based protein profiling (ABPP)
PBMCs were thawed, washed with 1 x PBS and equal amounts of cells were exposed to DMSO (D2650; Sigma-Aldrich) or MAGL inhibitor PF (PF-06795071) in DMSO for 30 min at room temperature with concentrations ranging from 1 nM to 1000 nM. Cells were washed with 1 x PBS and lysed in ice -cold lysis buffer (ab156035; Abcam), lysates were centrifuged at 14,000 x g for 15 minutes at 4°C and supernatants were collected. For ABPP experiments, cell lysates containing equal amounts of protein were incubated with the appropriate concentration of activity -based probe for 30 min at room temperature. The reaction was quenched for 30 min by adding SDS -PAGE loading buffer (NP0007, Thermo). Samples were then separated by SDS-PAGE and bands were detected ChemiDoc Imager (Bio-Rad Laboratories). Following detection, gels were stained with SimplyBlue™ SafeStain (LC6060, Thermo) for 1 hour with gentle agitation and excess stain was removed by destaining in ddH2O for 1 h with gentle agitation. Gels were imaged and protein bands were quantified using Image Lab software (Bio-Rad Laboratories).

MAGL [3] = target: T4, MAGL (Homo sapiens, UniProt Q99685); experiment: Native MS (RapidFire) 2-AG substrate assay, purified human MAGL; type: biochemical; details: purified human MAGL, native MS substrate assay; IC50 of covalent inhibitors time-dependent; read-out: IC50 hMAGL
T4 sequence (Q99685 1-303): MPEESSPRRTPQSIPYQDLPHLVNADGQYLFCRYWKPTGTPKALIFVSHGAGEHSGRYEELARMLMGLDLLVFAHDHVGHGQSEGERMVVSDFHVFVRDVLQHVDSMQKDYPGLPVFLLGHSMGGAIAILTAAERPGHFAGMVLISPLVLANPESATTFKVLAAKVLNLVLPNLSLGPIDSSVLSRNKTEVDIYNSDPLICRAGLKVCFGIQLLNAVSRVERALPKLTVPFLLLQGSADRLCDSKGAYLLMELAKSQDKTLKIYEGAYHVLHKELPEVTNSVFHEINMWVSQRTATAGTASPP
Experimental: as §1, §2

[4] = target: T5, NanoLuc luciferase MAGL fusion protein (Homo sapiens, UniProt Q99685); experiment: Cellular MAGL NanoBRET target engagement assay in live HEK293 cells; type: cell-based; details: live HEK293 cells; read-out: IC50 nanoBRET
T5 sequence (Q99685 1-303): T4 sequence (Q99685 1-303)
Experimental: This assay was performed as first described before.20
Compounds were profiled by a novel cellular MAGL NanoBRET™ Target Engagement assay, which measures the apparent affinity of test compounds by competitive displacement of a Roche -developed Tracer (WO2021058443, Example 2 121, or probe 4a, respectively), reversibly bound to a NanoLuc ® luciferase MAGL fusion protein in cells.
A HEK293A stable cell line expressing NanoLuc_MAGL was established at Roche and assigned as HEK293A_NanoLuc_MAGL clone #43. A fixed concentration of tracer is added to cells expressing the NanoLuc®_MAGL fusion protein to generate a BRET reporter complex. The introduction of competing compounds results in a dose -dependent decrease in NanoBRET™ energy transfer, which allows quantification of the intracellular affinity of the target protein for the test compound.
HEK293A_NanoLuc_MAGL clone #43 cells were cultured in DMEM (Gibco 31966) with 10% FBS and 800 ug/ml G418. The NanoBRET assay was performed by seeding 5000 cells/well in Costar low - volume white 384-well plate in assay buffer (1% FBS in HBSS), followed by adding the tracer (50 nM Example 21 or 100 nM 4a final concentration) and serial dilutions of test compounds. After 2 hours of incubation, Nanoluciferase substrates and extracellular inhibitors were added following the manufacturer's protocol (Promega, #N2520), and the NanoBRET signaling were quantified with the Paradigm (Molecular Devices).

rat MAGL = details: cited from earlier work
MAGL [5] = target: T4, MAGL; design: method as in earlier work; details: Table S2, literature compounds; ref (1), (6)-(12) as indicated per compound; cited from earlier work
[6] = purified rat MAGL, native MS substrate assay, read-out: IC50 rMAGL

Compound	IC50 (mMAGL) [nM]	solubility kinetic [1] [µg/mL]	IC50 (rMAGL; [6]) [nM]	IC50 (cMAGL) [nM]	IC50 (MAGL [3]) [nM]	IC50 (rMAGL; SI Table 1, read-out: IC50 against purified MAGL ± SEM, Rat) [nM]	loss of potency against rat or cynomolgus monkey orthologs (rMAGL)	IC50 [4] [nM]	labeling selectivity in ABPP (covalent probes) ([2]; mouse brain homogenates, broad range of concentrations)	selectivity in competitive ABPP (reversible probes) ([2]; mouse brain proteome, membrane and cytosolic fraction, 1 μM)	potency on rat MAGL (rat MAGL)	IC50 (MAGL [5]) [nM]
O=C(N1CC2(CC(CC3=C4C=CC(c5ccc[nH]5)=[N+]4[B-](F)(F)n4cccc43)C2)C1)N1CC2(CC(n3cnc(C4CC4)n3)C2)C1 [Compound 5a]	0.9	< 0.1	2.23	0.77	0.73	–	less than 4 fold	–	–	no other potential off-target detectable	–	–
O=C(Oc1ccc([N+](=O)[O-])cc1)N1CCC(C(O)(c2ccc3c(c2)OCO3)c2ccc3c(c2)OCO3)CC1 [JZL-184]	–	–	–	–	–	–	–	–	–	–	severely reduced potency	–
CN1/C(=C/C=C/C=C/C2=[N+](CCCCCC(=O)NCc3cn(CCOc4ccc(C(c5ccc(Cl)cc5)N5CCN(C(=O)OC(C(F)(F)F)C(F)(F)F)CC5)cc4)nn3)c3ccccc3C2(C)C)C(C)(C)c2ccccc21 (stereo not shown) [LEI-463]	–	–	–	–	–	–	–	–	–	–	–	~10

Further lines, with some results ahead:

IC50 (mMAGL) [nM]	solubility kinetic [1] [µg/mL]	IC50 (rMAGL; [6]) [nM]	IC50 (cMAGL) [nM]	IC50 (MAGL [3]) [nM]	IC50 (rMAGL; SI Table 1, read-out: IC50 against purified MAGL ± SEM, Rat) [nM]	loss of potency against rat or cynomolgus monkey orthologs (rMAGL)	IC50 [4] [nM]	Compound	labeling selectivity in ABPP (covalent probes) ([2]; mouse brain homogenates, broad range of concentrations)	selectivity in competitive ABPP (reversible probes) ([2]; mouse brain proteome, membrane and cytosolic fraction, 1 μM)	potency on rat MAGL (rat MAGL)	IC50 (MAGL [5]) [nM]
0.31	< 1	0.44	0.4	0.47	–	–	–	O=C(O[C@H](CO)C(F)(F)F)N1CC2(CC(CC3=C4C=CC(c5ccc[nH]5)=[N+]4[B-](F)(F)n4cccc43)C2)C1 [Compound 1a]	only selective irreversible labeling of the two MAGL isoforms	–	–	–
0.96	139 (≈ 288 µM)	–	3.86	0.83	3.54 ± 0.37	less than 4 fold	557	O=C1NC2(CO1)CN(C(=O)N1CC3(CCC(CC4=C5C=CC=[N+]5[B-](F)(F)n5cccc54)CC3)C1)C2 [Compound 3]	–	–	–	–
